ChEMBL document CHEMBL3885881, “DrugMatrix”

Species: Rattus norvegicus
Assay: DrugMatrix - Regimen: Daily Repeat
Format: toxicity, organism-based, Sprague-Dawley
Design: regimen Daily Repeat, gender Male, age 6-8 weeks
Details: in vivo, iv, vehicle 100 % SALINE; for ABSOLUTE BASOPHIL / ABSOLUTE EOSINOPHIL / ABSOLUTE LYMPHOCYTE / ABSOLUTE MONOCYTE / ABSOLUTE SEGMENTED NEUTROPHIL / BASOPHIL / EOSINOPHIL / ERYTHROCYTE COUNT / HEMATOCRIT / HEMOGLOBIN / LYMPHOCYTE / MEAN CORPUSCULAR HEMOGLOBIN / MEAN CORPUSCULAR HEMOGLOBIN CONCENTRATION / MONOCYTE / NEUTROPHIL / NUCLEATED RED BLOOD CELLS / PLATELET COUNT: tissue Blood; for ALANINE AMINOTRANSFERASE / ALBUMIN / ALKALINE PHOSPHATASE / ASPARTATE AMINOTRANSFERASE / BLOOD UREA NITROGEN / CARBON DIOXIDE / CHLORIDE / CHOLESTEROL / CREATINE PHOSPHOKINASE / CREATININE / GLUCOSE / LIPASE / PHOSPHORUS / POTASSIUM / SODIUM / TOTAL BILIRUBIN / TOTAL PROTEIN / URIC ACID: tissue Plasma
[1] = 0 mg/kg, 72 h, dose level Control, time 3 day
[2] = 0 mg/kg, 120 h, dose level Control, time 5 day
[3] = 5 mg/kg, 72 h, dose level High, time 3 day

CCc1c2c(nc3ccc(OC(=O)N4CCC(N5CCCCC5)CC4)cc13)-c1cc3c(c(=O)n1C2)COC(=O)[C@]3(O)CC [IRINOTECAN]
ABSOLUTE BASOPHIL [1]: 0 CELLS/uL
ABSOLUTE EOSINOPHIL [1]: 23.17 CELLS/uL
ABSOLUTE LYMPHOCYTE [1]: 12448.83 CELLS/uL
ABSOLUTE MONOCYTE [1]: 259.5 CELLS/uL
ABSOLUTE SEGMENTED NEUTROPHIL [1]: 1635.17 CELLS/uL
BASOPHIL [1]: 0%
EOSINOPHIL [1]: 0.17%
ERYTHROCYTE COUNT [1]: 5.35 x10E6/uL
HEMATOCRIT [1]: 34.85%
HEMOGLOBIN [1]: 13.72 G/DL
LYMPHOCYTE [1]: 86.5%
MEAN CORPUSCULAR HEMOGLOBIN [1]: 25.67 pg
MEAN CORPUSCULAR HEMOGLOBIN CONCENTRATION [1]: 39.38 G/DL
MONOCYTE [1]: 1.83%
NEUTROPHIL [1]: 11.5%
NUCLEATED RED BLOOD CELLS [1]: 0 /100WBC
PLATELET COUNT [1]: 1248.67 x10E3/uL
ALANINE AMINOTRANSFERASE [1]: 56.5 u/L
ALBUMIN [1]: 4.27 G/DL
ALKALINE PHOSPHATASE [1]: 334 u/L
ASPARTATE AMINOTRANSFERASE [1]: 85.5 u/L
BLOOD UREA NITROGEN [1]: 16.33 mg/dL
CARBON DIOXIDE [1]: 26.5 mmol/L
CHLORIDE [1]: 100.17 MEQ/L
CHOLESTEROL [1]: 70.33 mg/dL
CREATINE PHOSPHOKINASE [1]: 339.5 u/L
CREATININE [1]: 0.18 mg/dL
GLUCOSE [1]: 155.17 mg/dL
LIPASE [1]: 9.5 u/L
PHOSPHORUS [1]: 13.55 mg/dL
POTASSIUM [1]: 6.68 MEQ/L
SODIUM [1]: 143.87 MEQ/L
TOTAL BILIRUBIN [1]: 0.2 mg/dL
TOTAL PROTEIN [1]: 5.98 G/DL
URIC ACID [1]: 1.53 mg/dL
ABSOLUTE BASOPHIL [2]: 0 CELLS/uL
ABSOLUTE EOSINOPHIL [2]: 16.17 CELLS/uL
ABSOLUTE LYMPHOCYTE [2]: 10653.67 CELLS/uL
ABSOLUTE MONOCYTE [2]: 17.17 CELLS/uL
ABSOLUTE SEGMENTED NEUTROPHIL [2]: 746.33 CELLS/uL
BASOPHIL [2]: 0%
EOSINOPHIL [2]: 0.17%
ERYTHROCYTE COUNT [2]: 5.88 x10E6/uL
HEMATOCRIT [2]: 36.68%
HEMOGLOBIN [2]: 14.6 G/DL
LYMPHOCYTE [2]: 91.83%
MEAN CORPUSCULAR HEMOGLOBIN [2]: 24.85 pg
MEAN CORPUSCULAR HEMOGLOBIN CONCENTRATION [2]: 39.8 G/DL
MONOCYTE [2]: 0.17%
NEUTROPHIL [2]: 7.83%
NUCLEATED RED BLOOD CELLS [2]: 0 /100WBC
PLATELET COUNT [2]: 1219.5 x10E3/uL
ALANINE AMINOTRANSFERASE [2]: 45.5 u/L
ALBUMIN [2]: 4.23 G/DL
ALKALINE PHOSPHATASE [2]: 330.17 u/L
ASPARTATE AMINOTRANSFERASE [2]: 93.33 u/L
BLOOD UREA NITROGEN [2]: 18 mg/dL
CARBON DIOXIDE [2]: 25.5 mmol/L
CHLORIDE [2]: 96.33 MEQ/L
CHOLESTEROL [2]: 73.5 mg/dL
CREATINE PHOSPHOKINASE [2]: 434 u/L
CREATININE [2]: 0.2 mg/dL
GLUCOSE [2]: 148.83 mg/dL
LIPASE [2]: 10 u/L
PHOSPHORUS [2]: 12.63 mg/dL
POTASSIUM [2]: 6.66 MEQ/L
SODIUM [2]: 139.78 MEQ/L
TOTAL BILIRUBIN [2]: 0.15 mg/dL
TOTAL PROTEIN [2]: 6.1 G/DL
URIC ACID [2]: 2.02 mg/dL
ABSOLUTE BASOPHIL [3]: 0 CELLS/uL
ABSOLUTE EOSINOPHIL [3]: 80.67 CELLS/uL
ABSOLUTE LYMPHOCYTE [3]: 9024 CELLS/uL
ABSOLUTE MONOCYTE [3]: 170 CELLS/uL
ABSOLUTE SEGMENTED NEUTROPHIL [3]: 658.67 CELLS/uL
BASOPHIL [3]: 0%
EOSINOPHIL [3]: 0.67%
ERYTHROCYTE COUNT [3]: 5.4 x10E6/uL
HEMATOCRIT [3]: 34.93%
HEMOGLOBIN [3]: 13.9 G/DL
LYMPHOCYTE [3]: 90.67%
MEAN CORPUSCULAR HEMOGLOBIN [3]: 25.73 pg
MEAN CORPUSCULAR HEMOGLOBIN CONCENTRATION [3]: 39.77 G/DL
MONOCYTE [3]: 1.67%
NEUTROPHIL [3]: 7%
NUCLEATED RED BLOOD CELLS [3]: 0 /100WBC
PLATELET COUNT [3]: 1386.67 x10E3/uL
ALANINE AMINOTRANSFERASE [3]: 49 u/L
ALBUMIN [3]: 4.27 G/DL
ALKALINE PHOSPHATASE [3]: 402.67 u/L
ASPARTATE AMINOTRANSFERASE [3]: 93 u/L
BLOOD UREA NITROGEN [3]: 14.67 mg/dL
CARBON DIOXIDE [3]: 26.67 mmol/L
CHLORIDE [3]: 102.67 MEQ/L
CHOLESTEROL [3]: 65 mg/dL
CREATINE PHOSPHOKINASE [3]: 421.33 u/L
CREATININE [3]: 0.18 mg/dL
GLUCOSE [3]: 152.67 mg/dL
LIPASE [3]: 10 u/L
PHOSPHORUS [3]: 14.3 mg/dL
POTASSIUM [3]: 6.6 MEQ/L
SODIUM [3]: 145.83 MEQ/L
TOTAL BILIRUBIN [3]: 0.17 mg/dL
TOTAL PROTEIN [3]: 5.8 G/DL
